# From US20100144672A1, “PYRIMIDINYL PYRAZOLES AS INSECTICIDES AND PARASITICIDE ACTIVE AGENTS” (BAYER CROPSCIENCE AG, priority 2006, published 2010)
# Like-named read-outs stand apart in the source and are kept apart here.
# How the values were obtained:
# [1] = logP by HPLC (EEC-Directive 79/831 Annex V.A8); type: physicochemical
# Description: The logP values given in the tables were determined in accordance with EEC-Directive 79/831 Annex V.A8 by HPLC (gradient method, acetonitrile/0.1% strength aqueous phosphoric acid or formic acid).
# [2] = tested on: larvae of the mustard beetle (Phaedon cochleariae); experiment: Phaedon test (PHAECO spray treatment); type: in vivo; settings: 168 h, application rate 500 g/ha, after 7 d, read-out: activity (effect in %, beetle larvae killed)
# Description: Phaedon Test ([…] Spray Treatment) [table] To produce a suitable preparation of active compound, 1 part by weight of active compound is mixed with the stated amounts of solvents and emulsifier, and the concentrate is diluted with emulsifier-containing water to the desired concentration. Discs of chinese cabbage (Brassica pekinensis) are sprayed with an active compound preparation of the desired concentration and, after drying, populated with larvae of the mustard beetle (Phaedon cochleariae). After the desired period of time, the effect in % is determined 100% means that all beetle larvae have been killed; 0% means that none of the beetle larvae have been killed.
# [3] = tested on: caterpillars of the army worm (Spodoptera frugiperda); experiment: Spodoptera frugiperda test (SPODFR spray treatment); type: in vivo; settings: 168 h, application rate 500 g/ha, after 7 d, read-out: activity (effect in %, caterpillars killed)
# Description: Spodoptera frugiperda Test (SPODFR Spray Treatment) [table] To produce a suitable preparation of active compound, 1 part by weight of active compound is mixed with the stated amounts of solvents and emulsifier, and the concentrate is diluted with emulsifier-containing water to the desired concentration. Discs of maize leaves (Zea mays) are sprayed with an active compound preparation of the desired concentration and, after drying, populated with caterpillars of the army worm (Spodoptera frugiperda). After the desired period of time, the effect in % is determined 100% means that all caterpillars have been killed; 0% means that none of the caterpillars have been killed.
# [4] = HPLC gradient method, acetonitrile/0.1% aqueous phosphoric acid or formic acid
# [5] = Physical data column of Table 35
# [6] = HPLC gradient method, acetonitrile/0.1% strength aqueous phosphoric acid or formic acid
compound,measurement,setting,value
Nc1c(-c2ccccc2Cl)c(C(F)(F)F)nn1-c1ncccn1 [1-04],logP,[1],logP = 2.59
Nc1c(-c2ccc(Oc3ccccc3)cc2)c(C(F)(F)F)nn1-c1ncccn1 [5-40],logP,[1]; [4],logP 3.22
Nc1c(-c2cccc(Cl)c2)c(C(F)(F)F)nn1-c1ncccn1 [Example 1-5],logP,[1]; [4],logP = 2.96
"Nc1c(-c2ccc(Cl)c(Br)c2)c(C(F)(F)F)nn1-c1ncccn1 [Example 1-87, 4-(3-bromo-4-chlorophenyl)-2-pyrimidin-2-yl-5-(trifluoromethyl)-2H-pyrazol-3-ylamine]",pest or weed control at 500 g/ha,[2],≥ 80%
same,pest or weed control at 500 g/ha,[3],≥ 80%
CCOc1ccc(-c2c(C(F)(F)F)nn(-c3ncccn3)c2N)cc1 [Example 5-23],pest or weed control at 500 g/ha,[2],≥ 80%
CC(C)Oc1ccc(-c2c(C(F)(F)F)nn(-c3ncccn3)c2N)cc1 [Example 5-25],pest or weed control at 500 g/ha,[2],≥ 80%
CSc1ccc(-c2c(C(F)(F)F)nn(-c3ncccn3)c2N)cc1 [Example 5-58],pest or weed control at 500 g/ha,[2],≥ 80%
C[S+]([O-])c1ccc(-c2c(C(F)(F)F)nn(-c3ncccn3)c2N)cc1 (stereo not drawn) [Example 5-59],pest or weed control at 500 g/ha,[2],≥ 80%
CS(=O)(=O)c1ccc(-c2c(C(F)(F)F)nn(-c3ncccn3)c2N)cc1 [Example 5-60],pest or weed control at 500 g/ha,[2],≥ 80%
CN(C)c1ccc(-c2c(C(F)(F)F)nn(-c3ncccn3)c2N)cc1 [Example 5-89],pest or weed control at 500 g/ha,[2],≥ 80%
Nc1c(-c2cccc(SC(F)(F)F)c2)c(C(F)(F)F)nn1-c1ncccn1 [Example 6-61],pest or weed control at 500 g/ha,[2],≥ 80%
N#Cc1cccc(-c2c(C(F)(F)F)nn(-c3ncccn3)c2N)c1 [Example 6-70],pest or weed control at 500 g/ha,[2],≥ 80%
same,pest or weed control at 500 g/ha,[3],≥ 80%
Nc1c(-c2cccc([N+](=O)[O-])c2)c(C(F)(F)F)nn1-c1ncccn1 [Example 6-78],pest or weed control at 500 g/ha,[2],≥ 80%
same,pest or weed control at 500 g/ha,[3],≥ 80%
"CC(C)Oc1ccc(-c2c(C(F)(F)F)nn(-c3ncccn3)c2N)cc1Cl [Example 8-92, 4-(3-chloro-4-isopropoxyphenyl)-2-pyrimidin-2-yl-5-trifluoromethyl-2H-pyrazol-3-ylamine]",pest or weed control at 500 g/ha,[2],≥ 80%
"CNc1c(-c2ccc(Br)cc2)c(C(F)(F)F)nn1-c1ncccn1 [Example 11-10, 4-(4-bromophenyl)-N-methyl-1-pyrimidin-2-yl-3-(trifluoromethyl)-1H-pyrazole-5-amine]",pest or weed control at 500 g/ha,[2],≥ 80%
FC(F)(F)c1nn(-c2ncccn2)c(Cl)c1-c1cccc(Cl)c1 [Example 14-06],"logP (lgP), Physical data",[1]; by HPLC,lgP = 3.88
FC(F)(F)c1nn(-c2ncccn2)c(Br)c1-c1cccc(Cl)c1 [Example 14-25],"logP (lgP), Physical data",[1]; by HPLC,lgP = 3.89
FC(F)(F)c1nn(-c2ncccn2)c(Br)c1-c1ccc(Br)cc1 [Example 14-29],chromatographic logP,"[1]; by HPLC, read-out: logP (lgP), Physical data",3.75
FC(F)(F)c1nn(-c2ncccn2)c(Br)c1-c1cc(Cl)cc(Cl)c1 [Example 14-38],"logP (lgP), Physical data",[1]; by HPLC,lgP = 4.62
FC(F)(F)c1nn(-c2ncccn2)c(I)c1-c1cccc(Cl)c1 [Example 14-44],"logP (lgP), Physical data",[1]; by HPLC,lgP = 3.78
FC(F)(F)c1nn(-c2ncccn2)c(I)c1-c1ccc(Cl)c(Cl)c1 [Example 14-56],"logP (lgP), Physical data",[1]; by HPLC,lgP = 4.39
FC(F)(F)c1nn(-c2ncccn2)c(I)c1-c1cc(Cl)cc(Cl)c1 [Example 14-57],"logP (lgP), Physical data",[1]; by HPLC,lgP = 4.51
FC(F)(F)c1cc(Cl)cc(-c2c(C(F)(F)F)nn(-c3ncccn3)c2Br)c1 [Example 14-58],"logP (lgP), Physical data",[1]; by HPLC,lgP = 4.64
FC(F)(F)c1cc(Cl)cc(-c2c(C(F)(F)F)nn(-c3ncccn3)c2I)c1 [Example 14-59],"logP (lgP), Physical data",[1]; by HPLC,lgP = 4.39
Cc1nn(-c2ncccn2)c(N)c1-c1ccc(F)cc1Cl [Example 16-18],logP,[1]; Physical data column of Table 16,logP = 1.71
Cc1ccnc(-n2nc(C(F)(F)F)c(-c3cccc(Br)c3)c2N)n1 [Example 19-09],lgP,"[1]; Table 19, Physical data",lgP = 3.84
Cc1ccnc(-n2nc(C(F)(F)F)c(-c3ccc(Br)cc3)c2N)n1 [Example 19-10],lgP,"[1]; Table 19, Physical data",lgP = 3.37
Cc1ccnc(-n2nc(C(F)(F)F)c(-c3ccc(Cl)c(Cl)c3)c2N)n1 [Example 19-18],lgP,"[1]; Table 19, Physical data",lgP = 3.73
Nc1c(-c2ccc(Br)cc2)c(C(F)(F)F)nn1-c1ncc(F)cn1 [Example 19-48],lgP,"[1]; Table 19, Physical data",lgP = 3.19
Nc1c(-c2cc(Cl)cc(Cl)c2)c(C(F)(F)F)nn1-c1ncc(F)cn1 [Example 19-57],lgP,"[1]; Table 19, Physical data",lgP = 3.63
Nc1c(-c2ccc(Cl)cc2)c(C(F)(F)F)nn1-c1ncc(Cl)cn1 [Example 19-64],lgP,"[1]; Table 19, Physical data",lgP = 3.53
Nc1c(-c2cc(Cl)cc(Cl)c2)c(C(F)(F)F)nn1-c1ncc(Cl)cn1 [Example 19-76],lgP,"[1]; Table 19, Physical data",lgP = 4.10
Nc1c(-c2cc(Cl)cc(Cl)c2)c(C(F)(F)F)nn1-c1ncc(Br)cn1 [Example 19-95],lgP,"[1]; Table 19, Physical data",lgP = 4.15
Nc1c(-c2cc(Cl)cc(Cl)c2)c(C(F)(F)F)nn1-c1nccc(C(F)(F)F)n1 [Example 19-152],lgP,"[1]; Table 19, Physical data",lgP = 4.25
COc1ccnc(-n2nc(C(F)(F)F)c(-c3cc(Cl)cc(Cl)c3)c2N)n1 [Example 19-171],lgP,"[1]; Table 19, Physical data",lgP = 2.93
Cc1ccnc(-n2nc(C(F)(F)F)c(-c3cc(F)cc(Cl)c3)c2N)n1 [Example 19-198],lgP,"[1]; Table 19, Physical data",lgP = 3.42
Cc1ccnc(-n2nc(C(F)(F)F)c(-c3cc(F)cc(F)c3)c2N)n1 [Example 19-199],lgP,"[1]; Table 19, Physical data",lgP = 3.06
Cc1ccnc(-n2nc(C(F)(F)F)c(-c3ccc(Br)cc3F)c2N)n1 [Example 19-200],lgP,"[1]; Table 19, Physical data",lgP = 3.28
Cc1ccnc(-n2nc(C(F)(F)F)c(-c3ccc(F)c(F)c3)c2N)n1 [Example 19-201],lgP,"[1]; Table 19, Physical data",lgP = 3.02
Cc1cc(C)cc(-c2c(C(F)(F)F)nn(-c3nccc(C)n3)c2N)c1 [Example 19-202],lgP,"[1]; Table 19, Physical data",lgP = 3.42
Cc1cnc(-n2nc(C(F)(F)F)c(-c3cc(F)cc(Cl)c3)c2N)nc1 [Example 19-203],lgP,"[1]; Table 19, Physical data",lgP = 3.42
Cc1cnc(-n2nc(C(F)(F)F)c(-c3cc(F)cc(F)c3)c2N)nc1 [Example 19-204],lgP,"[1]; Table 19, Physical data",lgP = 3.06
Cc1cnc(-n2nc(C(F)(F)F)c(-c3ccc(Br)cc3F)c2N)nc1 [Example 19-205],lgP,"[1]; Table 19, Physical data",lgP = 3.28
Cc1cnc(-n2nc(C(F)(F)F)c(-c3ccc(F)c(F)c3)c2N)nc1 [Example 19-206],lgP,"[1]; Table 19, Physical data",lgP = 3.02
Cc1cnc(-n2nc(C(F)(F)F)c(-c3cc(Br)cc(Br)c3)c2N)nc1 [Example 19-207],lgP,"[1]; Table 19, Physical data",lgP = 4.05
Cc1cnc(-n2nc(C(F)(F)F)c(-c3cc(C)cc(C)c3)c2N)nc1 [Example 19-208],lgP,"[1]; Table 19, Physical data",lgP = 3.47
N#Cc1ccnc(-n2nc(C(F)(F)F)c(-c3cc(Cl)cc(Cl)c3)c2N)n1 [Example 19-209],lgP,"[1]; Table 19, Physical data",lgP = 3.84
CCNc1c(-c2ccc(F)cc2)c(C)nn1-c1ncccn1 [Example 25-04],logP,"[1]; Table 25, Physical data",logP = 2.59
CCNc1c(-c2ccccc2Cl)c(C)nn1-c1ncccn1 [Example 25-05],logP,"[1]; Table 25, Physical data",logP = 2.69
CCNc1c(-c2cccc(Cl)c2)c(C)nn1-c1ncccn1 [Example 25-06],logP,"[1]; Table 25, Physical data",logP = 3.02
CCNc1c(-c2ccc(F)cc2Cl)c(C)nn1-c1ncccn1 [Example 25-31],logP,[1],logP = 2.79
CCCNc1c(-c2cccc(Cl)c2)c(C)nn1-c1ncccn1 [Example 26-6],logP,[1]; Physical data of Table 26,logP = 3.37
CCCNc1c(-c2ccc(Cl)cc2)c(C)nn1-c1ncccn1 [Example 26-7],logP,[1]; Physical data of Table 26,logP = 3.42
Cc1nn(-c2ncccn2)c(NC(C)C)c1-c1ccc(F)cc1Cl [Example 26-37],logP,[1]; Physical data of Table 26,logP = 2.91
Cc1nn(-c2ncccn2)c(NCc2ccccc2)c1-c1ccccc1Cl [Example 26-44],logP,[1]; Physical data of Table 26,logP = 3.37
Cc1nn(-c2ncccn2)c(NCc2ccccc2)c1-c1ccc(Cl)cc1Cl [Example 26-54],logP,[1]; Physical data of Table 26,logP = 4.23
Cc1nn(-c2ncccn2)c(NCC2CC2)c1-c1ccc(F)cc1 [Example 26-62],logP,[1]; Physical data of Table 26,logP = 3.15
CC(C)=CCNc1c(-c2ccc(Cl)cc2)c(C)nn1-c1ncccn1 [Example 26-84],logP,[1]; Physical data of Table 26,logP = 3.84
CCc1nn(-c2ncccn2)c(N)c1-c1ccc(Cl)nc1 [Example 32-37],lgP,[1]; Physical data column of Table 32,lgP = 1.76
Nc1c(-c2ccc(Cl)cc2)c(C2CC2)nn1-c1ncccn1 [Example 35-07],logP,[1]; [5],logP 2.66; ^1H-NMR
Nc1c(-c2ccc(Br)cc2)c(C2CCCC2)nn1-c1ncccn1 [Example 35-87],logP,[1]; [5],logP 3.34
Nc1c(-c2cc(F)cc(Cl)c2)c(C(F)(F)F)nn1-c1ncc(F)cn1 [Example 43-07],lgP,[1]; [6],lgP = 3.24
Nc1c(-c2cc(F)cc(F)c2)c(C(F)(F)F)nn1-c1ncc(F)cn1 [Example 43-08],lgP,[1]; [6],lgP = 2.93
Nc1c(-c2ccc(Br)cc2F)c(C(F)(F)F)nn1-c1ncc(F)cn1 [Example 43-09],lgP,[1]; [6],lgP = 3.15
Nc1c(-c2ccc(F)c(F)c2)c(C(F)(F)F)nn1-c1ncc(F)cn1 [Example 43-10],lgP,[1]; [6],lgP = 2.84
Nc1c(-c2cc(Br)cc(Br)c2)c(C(F)(F)F)nn1-c1ncc(F)cn1 [Example 43-11],lgP,[1]; [6],lgP = 3.84
